The source of these data is patent US20050079231A1, “Use of ingested sublimed sulfur for the restoration of lactose tolerance in humans with the medical disorder of lactose intolerance” (priority 1999, published 2005).

The test system of assay [1] is patients with positive baseline lactose tolerance tests. Description: Standard lactose tolerance test, baseline vs post-treatment. Type of assay: in vivo, humans. The protocol:
(§1) From May 1998 through April 2002, 41 patients (22 with clinical and 19 with both clinical and laboratory evidence of severe lactose intolerance) were treated with sublimed sulfur (USP) and a restricted lactose diet for a mean of 3.6 (standard deviation [SD] 3.4) weeks, followed by a regular diet and sublimed sulfur for a mean of 5.8 (SD 5.0) weeks. Quantitative comparisons were made between baseline and post-treatment symptoms in all patients and standard lactose tolerance test results in a subset of 19 patients with positive baseline lactose tolerance tests.

Assay [2] relates to patients with clinical lactose intolerance. Description: Treatment of lactose-intolerant patients with sublimed sulfur: clinical symptoms, baseline vs post-treatment. It counts as in vivo, humans. As to the method:
as §1

The mark [3] stands for this setting: limited course of treatment, conclusion.

On to `[S]` [sublimed sulfur], for which the “patients who converted from intolerant to tolerant test results” value in assay [1] (9 of 19 patients) amounted to 47%. Further, the “serum glucose level versus baseline in the lactose tolerance test” value is listed as “increased significantly above baseline” in assay [1] (at 30 minutes, t=2.81, p=0.01) and “increased significantly above baseline” in assay [1] (at 60 minutes, t=2.58, p=0.02). Further, in assay [1] (setting [3]), the lactase activity result is “significant increase”. Further, the “patients who remained asymptomatic after a second course of treatment” value in assay [2] (13 of 17 patients whose symptoms redeveloped) came to 76%. Further, the “patients who became clinically asymptomatic after treatment” value in assay [2] (17 of the subset of 19 patients with positive baseline lactose tolerance tests) was 89%. Also, in assay [2] (20 of the remaining 39 patients), the “patients who remained symptom-free after one course of treatment” value is reported as 51%. In addition, the “patients who became asymptomatic during treatment” value in assay [2] (39 of 41 patients, sublimed sulfur with restricted lactose diet, then regular diet) turned out to be 95%. Moreover, the overall relapse rate in assay [2] (after one course of treatment, confidence interval in brackets) is 0.46 (confidence interval 0.32-0.61). In addition, in assay [2] (human, in vivo), the “median symptom-free period after discontinuation of sublimed sulfur” value is 76 weeks. In assay [2] (setting [3]), the lactose tolerance entry was “restored lactose tolerance for prolonged periods”.
